The values below come from patent US20120244122A1, “Peptides for the Treatment of HCV Infections” (priority 2009, published 2012).

Read-outs that look alike come from different tables or passages of the source.

One data set deals with hepatitis C virus (HCV). The conditions noted are these: treatment-naïve patients, boceprevir combined with peginterferon alpha-2b and ribavirin, cited from earlier work.
A short description of data set [1]: Metabolic stability in human liver microsomes. The data set is classed as in vitro ADME. The conditions noted are these: for half-life at 0.25 μM: human, in vitro half-life, 0.5 mg/mL HLM, 0.25 μM test compound, 2 mM NADPH, pH 7.4, 37° C., 0-30 minutes; for % Difference: [(deuterated species) − (nondeuterated species)](100)/(nondeuterated species), t1/2 in HLM vs boceprevir. The method, then:
Human liver microsomes (20 mg/mL) were obtained from Xenotech, LLC (Lenexa, Kans.). β-Nicotinamide adenine dinucleotide phosphate, reduced form (NADPH), magnesium chloride (MgCl2), and dimethyl sulfoxide (DMSO) were purchased from Sigma-Aldrich.
7.5 mM stock solutions of Compounds 103, 109, 130, 134, 154, 157 and 158, as well as boceprevir, were prepared in DMSO. The 7.5 mM stock solutions were diluted to 12.5 μM in acetonitrile (ACN). The 20 mg/mL human liver microsomes were diluted to 0.625 mg/mL in 0.1 M potassium phosphate buffer, pH 7.4, containing 3 mM MgCl2. The diluted microsomes (375 μL) were added to wells of a 96-well deep-well polypropylene plate in triplicate. 10 μL of the 12.5 μM test compound was added to the microsomes and the mixture was pre-warmed for 10 minutes. Reactions were initiated by addition of 125 μL of pre-warmed NADPH solution. The final reaction volume was 0.5 mL and contained 0.5 mg/mL human liver microsomes, 0.25 μM test compound, and 2 mM NADPH in 0.1 M potassium phosphate buffer, pH 7.4, and 3 mM MgCl2. The reaction mixtures were incubated at 37° C., and 50 μL aliquots were removed at 0, 5, 10, 20, and 30 minutes and added to shallow-well 96-well plates which contained 50 μL of ice-cold ACN with internal standard to stop the reactions. The plates were stored at 4° C. for 20 minutes after which 100 μl of water was added to the wells of the plate before centrifugation to pellet precipitated proteins. Supernatants were transferred to another 96-well plate and analyzed for amounts of parent remaining by LC-MS/MS using an Applied Bio-systems API 4000 mass spectrometer. 7-ethoxycoumarin (1 μM) was used as the positive control substrate.
The in vitro half-lives (t1/2s) for test compounds are calculated from the slopes of the linear regression of % parent remaining (ln) vs incubation time relationship using the following formula:
in vitro t1/2=0.693/k, where k=−[slope of linear regression of % parent remaining(ln) vs incubation time]
Data analysis is performed using Microsoft Excel Software.
The experiment was repeated four separate times.
On the technique in general: Liver microsomes are vesicles of endoplasmic reticulum, rich in cytochrome P450 enzymes.

For data set [2] the following is noted: patients with hepatitis C; adverse events infrequent (headache, fever, myalgia); cited from earlier work.

In the case of `CC(C)(C)NC(=O)NC(C(=O)N1CC2C(C1C(=O)NC(CC1CCC1)C(=O)C(N)=O)C2(C)C)C(C)(C)C` (stereo not drawn) [Boceprevir, N-(4-amino-1-cyclobutyl-3,4-dioxobutan-2-yl)-3-(2-(3-tert-butylureido)-3,3-dimethylbutanoyl)-6,6-dimethyl-3-azabicyclo[3.1.0]hexane-2-carboxamide], the “sustained viral response (SVR) rates” value in the data set with hepatitis C virus (HCV) (after 12 weeks) is 66-74%; in the data set with hepatitis C virus (HCV) (after 24 weeks), 55-56%. Further, the half-life (in general, how long it takes for the measured level to halve) at 0.25 μM in data set [1] (human liver microsomes) is 19 min. In addition, in data set [2], the tolerability result is recorded as “well-tolerated”.
On to `[2H]C([2H])([2H])C1(C([2H])([2H])[2H])[C@@H]2[C@@H](C(=O)NC(CC3CCC3)C(=O)C(N)=O)N(C(=O)[C@@H](NC(=O)NC(C([2H])([2H])[2H])(C([2H])([2H])[2H])C([2H])([2H])[2H])C(C([2H])([2H])[2H])(C([2H])([2H])[2H])C([2H])([2H])[2H])C[C@@H]21` (stereo partly drawn) [Compound 103, (1R,2S,5S)—N-(4-Amino-1-(cyclobutyl)-3,4-dioxobutan-2-yl)-3-((S)-2-(3-tert-butyl-d9-ureido)-3,3-di(methyl-d3)-4,4,4-d3-butanoyl)-6,6-di(methyl-d3)-3-azabicyclo[3.1.0]hexane-2-carboxamide], for which, in data set [1], the “% Difference” value is listed as 32.0%. In addition, in data set [1] (human liver microsomes), the half-life at 0.25 μM worked out at 25 min.
Consider `[2H]C([2H])([2H])C(NC(=O)N[C@H](C(=O)N1C[C@H]2[C@@H]([C@H]1C(=O)NC(CC1CCC1)C(=O)C(N)=O)C2(C)C)C(C([2H])([2H])[2H])(C([2H])([2H])[2H])C([2H])([2H])[2H])(C([2H])([2H])[2H])C([2H])([2H])[2H]` (stereo partly drawn) [Compound 109, (1R,2S,5S)—N-(4-Amino-1-cyclobutyl-3,4-dioxobutan-2-yl)-6,6-dimethyl-3-((S)-4,4,4-(methyl-d3)-2-(3-(1,1,1,3,3,3-di(methyl-d3)-2-(methyl-d3)propan-2-yl)ureido)-3,3-di(methyl-d3)butanoyl)-3-azabicyclo[3.1.0]hexane-2-carboxamide], for which the “% Difference” value in data set [1] was determined as 21.8%. This compound displayed a half-life at 0.25 μM in data set [1] (human liver microsomes) of 23.2 min.
The matching figures for `[2H]C([2H])([2H])C1(C([2H])([2H])[2H])[C@@H]2[C@@H](C(=O)NC(C(=O)C(N)=O)C([2H])([2H])C3([2H])C([2H])([2H])C([2H])([2H])C3([2H])[2H])N(C(=O)[C@@H](NC(=O)NC(C)(C)C)C(C)(C)C)C[C@@H]21` (stereo partly drawn) [Compound 130, (1R,2S,5S)—N-(4-Amino-1-(cyclobutyl-d7)-1,1-d2-3,4-dioxobutan-2-yl)-3-((S)-2-(3-tert-butylureido)-3,3-dimethylbutanoyl)-6,6-di(methyl-d3)-3-azabicyclo[3.1.0]hexane-2-carboxamide]: 65.3% and 31.4 min.
For the compound `[2H]C([2H])([2H])C1(C([2H])([2H])[2H])[C@@H]2[C@@H](C(=O)NC(CC3CCC3)C(=O)C(N)=O)N(C(=O)[C@@H](NC(=O)NC(C)(C)C)C(C)(C)C)C[C@@H]21` (stereo partly drawn) [Compound 134, (1R,2S,5S)—N-(4-Amino-1-cyclobutyl-3,4-dioxobutan-2-yl)-3-((S)-2-(3-tert-butylureido)-3,3-dimethylbutanoyl)-6,6-di(methyl-d3)-3-azabicyclo[3.1.0]hexane-2-carboxamide], the “% Difference” value in data set [1] was 7.9%. In addition, the half-life at 0.25 μM in data set [1] (microsomes) amounted to 19.1 min.
On to `[2H]C([2H])(C(NC(=O)[C@@H]1[C@@H]2[C@H](CN1C(=O)[C@@H](NC(=O)NC(C)(C)C)C(C)(C)C)C2(C)C)C(=O)C(N)=O)C1([2H])C([2H])([2H])C([2H])([2H])C1([2H])[2H]` (stereo partly drawn) [Compound 154, (1R,2S,5S)—N-(4-Amino-1-(cyclobutyl-d7)-1,1-d2-3,4-dioxobutan-2-yl)-3-((S)-2-(3-tert-butylureido)-3,3-dimethylbutanoyl)-6,6-dimethyl-3-azabicyclo[3.1.0]hexane-2-carboxamide], for which the “% Difference” value in data set [1] was 51.4%. The compound also came in with a half-life at 0.25 μM in data set [1] (human liver microsomes) of 28.7 min.
Regarding `[2H]C1([2H])C([2H])([2H])C([2H])(CC(NC(=O)[C@@H]2[C@@H]3[C@H](CN2C(=O)[C@@H](NC(=O)NC(C)(C)C)C(C)(C)C)C3(C)C)C(=O)C(N)=O)C1([2H])[2H]` (stereo partly drawn) [Compound 157, (1R,2S,5S)—N-(4-Amino-1-(cyclobutyl-d7)-3,4-dioxobutan-2-yl)-3-((S)-2-(3-tert-butylureido)-3,3-dimethylbutanoyl)-6,6-dimethyl-3-azabicyclo[3.1.0]hexane-2-carboxamide], the “% Difference” value in data set [1] is listed as 39.9%. The same compound gave a half-life at 0.25 μM in data set [1] (human liver microsomes) of 26.6 min.
For `[2H]C([2H])([2H])C1(C([2H])([2H])[2H])[C@@H]2[C@@H](C(=O)NC(C(=O)C(N)=O)C([2H])([2H])C3([2H])C([2H])([2H])C([2H])([2H])C3([2H])[2H])N(C(=O)[C@@H](NC(=O)NC(C([2H])([2H])[2H])(C([2H])([2H])[2H])C([2H])([2H])[2H])C(C([2H])([2H])[2H])(C([2H])([2H])[2H])C([2H])([2H])[2H])C[C@@H]21` (stereo partly drawn) [Compound 158, (1R,2S,5S)—N-(4-Amino-1-(cyclobutyl-d7)-1,1-d2-3,4-dioxobutan-2-yl)-3-((S)-2-(3-(tert-butyl-d9)ureido)-3,3-di(methyl-d3)-4,4,4-d3-butanoyl)-6,6-di(methyl-d3)-3-azabicyclo[3.1.0]hexane-2-carboxamide], the “% Difference” value in data set [1] stood at 96.3%. The half-life at 0.25 μM in data set [1] (human liver microsomes) was determined as 37.2 min.
